Source: patent US20030207930A1 (priority 2000, published 2003)
Read-outs that look alike come from different tables or passages of the source.

What was measured:
[1] = intrinsic dissolving rates; format: physicochemical; conditions: pH 1, pH 4.5 and pH 6.8; compared with valsartan
[2] = hygroscopicity of the material obtained; format: physicochemical; conditions: material as obtained
[3] = N2 atmosphere, heating rate 10 K/min
[4] = 25° C., 4 hours
[5] = open container and sealed ampoule
[6] = dissolving profile of film-coated tablet; format: physicochemical; conditions: within 15 minutes
Protocol: In addition, an improved dissolving profile in a tablet can be assured. In studies of the dissolving profile, it was established that the calcium salt, especially the tetrahydrate thereof, is released by 100% from a film-coated tablet within 15 minutes.
In addition, an improved dissolving profile in a tablet can be assured. In studies of the dissolving profile, it was established that the magnesium salt, especially the hexahydrate thereof, is released by 100% from a film-coated tablet within 15 minutes.

[7] = step 1, relative humidity 40% (cycle 40-90)
[8] = step 2, relative humidity 50% (cycle 40-90)
[9] = step 3, relative humidity 60% (cycle 40-90)
[10] = step 4, relative humidity 70% (cycle 40-90)
[11] = step 5, relative humidity 80% (cycle 40-90)
[12] = step 6, relative humidity 90% (cycle 40-90)
[13] = step 7, relative humidity 80% (first cycle 90-0)
[14] = step 8, relative humidity 70% (first cycle 90-0)
[15] = step 9, relative humidity 60% (first cycle 90-0)
[16] = step 10, relative humidity 50% (first cycle 90-0)
[17] = step 11, relative humidity 40% (first cycle 90-0)
[18] = step 12, relative humidity 30% (first cycle 90-0)
[19] = step 13, relative humidity 20% (first cycle 90-0)
[20] = step 14, relative humidity 10% (first cycle 90-0)
[21] = step 15, relative humidity 0% (first cycle 90-0)
[22] = step 16, relative humidity 10% (cycle 0-90)
[23] = step 17, relative humidity 20% (cycle 0-90)
[24] = step 18, relative humidity 30% (cycle 0-90)
[25] = step 19, relative humidity 40% (cycle 0-90)
[26] = step 20, relative humidity 50% (cycle 0-90)
[27] = step 21, relative humidity 60% (cycle 0-90)
[28] = step 22, relative humidity 70% (cycle 0-90)
[29] = step 23, relative humidity 80% (cycle 0-90)
[30] = step 24, relative humidity 90% (cycle 0-90)
[31] = step 25, relative humidity 0% (second cycle 90-0)
[32] = step 26, relative humidity (starting value)

In the case of `CCCCC(=O)N(Cc1ccc(-c2ccccc2-c2nn[n-]n2)cc1)C(C(=O)[O-])C(C)C.[K+].[K+]` (centres unmarked) [di-potassium salt of valsartan], the intrinsic dissolving rates [1] is reported as “improved values over those of valsartan”.
For “(S)-N-(1-carboxy-2-methyl-prop-1-yl)-N-pentanoyl-N-[2′-(1H-tetrazol-5-yl)-biphenyl-4-ylmethyl]-amine disodium salt [Example 5]”, the hygroscopicity [2] was “hygroscopic”.
In the case of “(S)-N-(1-carboxy-2-methyl-prop-1-yl)-N-pentanoyl-N-[2′-(1H-tetrazol-5-yl)-biphenyl-4-ylmethyl]-amine calcium salt tetrahydrate”, the “weight loss or water loss in %” value ([3]; 25° C.) is reported as 0%, the “weight loss or water loss in %” value ([3]; 50° C.) is reported as 0% and the “weight loss or water loss in %” value ([3]; 75° C.) is reported as 0.5%. The “weight loss or water loss in %” value ([3]; 100° C.) was 3.5%, the “weight loss or water loss in %” value ([3]; 125° C.) was 10.2% and the “weight loss or water loss in %” value ([3]; 150° C.) was 12.4%. The “weight loss or water loss in %” value ([3]; 175° C.) was 12.8%, the “weight loss or water loss in %” value ([3]; 200° C.) was 12.9% and the “weight loss or water loss in %” value ([3]; 225° C.) was 12.9%. The “weight loss or water loss in %” value ([3]; 250° C.) was 13.0%, the “weight loss or water loss in %” value ([3]; 275° C.) was 13.2% and the “water absorption or loss (overall finding)” value ([4]; 0 to 90% relative humidity, measurement error about 0.1%) was “no measurable water absorption or loss”. For the same compound, the “water absorption or loss in %” value [4, 7] was 0.04%, the “water absorption or loss in %” value [4, 8] was 0.04% and the “water absorption or loss in %” value [4, 9] was 0.03%. For the same compound, the “water absorption or loss in %” value [4, 10] was 0.02%, the “water absorption or loss in %” value [4, 11] was 0.02% and the “water absorption or loss in %” value [4, 12] was 0.00%. The “water absorption or loss in %” value [4, 13] was 0.02%, the “water absorption or loss in %” value [4, 14] was 0.02% and the “water absorption or loss in %” value [4, 15] was 0.02%. For the same compound, the “water absorption or loss in %” value [4, 16] was 0.02%, the “water absorption or loss in %” value [4, 17] was 0.02% and the “water absorption or loss in %” value [4, 18] was 0.01%. For the same compound, the “water absorption or loss in %” value [4, 19] was 0.01%, the “water absorption or loss in %” value [4, 20] was 0.00% and the “water absorption or loss in %” value [4, 21] was −0.01%. The “water absorption or loss in %” value [4, 22] was 0.00%, the “water absorption or loss in %” value [4, 23] was 0.00% and the “water absorption or loss in %” value [4, 24] was 0.00%. For the same compound, the “water absorption or loss in %” value [4, 25] was 0.00%, the “water absorption or loss in %” value [4, 26] was 0.00% and the “water absorption or loss in %” value [4, 27] was 0.01%. The “water absorption or loss in %” value [4, 28] was 0.00%, the “water absorption or loss in %” value [4, 29] was −0.01% and the “water absorption or loss in %” value [4, 30] was −0.02%. For the same compound, the “water absorption or loss in %” value [4, 31] was −0.02%, the “water absorption or loss in %” value [4, 32] was 0.00% and the “water content in stability test” value [5] was “remains constant”.
With “(S)-N-(1-carboxy-2-methyl-prop-1-yl)-N-pentanoyl-N-[2′-(1H-tetrazol-5-yl)-biphenyl-4-ylmethyl]-amine dipotassium salt [Example 4]” the hygroscopicity [2] was “hygroscopic”.
For “Hydrate of Valsartan Disodium Salt (2.4 ±1.0 Mole H2O) [Example 11]”, the hygroscopicity [2] was “slightly hygroscopic”.
With “Hydrate of the Valsartan Dipotassium Salt (3.4±1.0 mole H2O) [Example 12]” the hygroscopicity [2] was “slightly hygroscopic”.
For “Bis-dibutylammonium Salt of Valsartan [Example 16]”, the hygroscopicity [2] was “slightly hygroscopic”.
For `CCCCC(=O)N(Cc1ccc(-c2ccccc2-c2nn[n-]n2)cc1)C(C(=O)[O-])C(C)C.[Ca+2]` (centres unmarked) [calcium salt of valsartan], the intrinsic dissolving rates [1] was “improved values over those of valsartan” and the “release from a film-coated tablet” value [6] was 100%.
In the case of `CCCCC(=O)N(Cc1ccc(-c2ccccc2-c2nnn[nH]2)cc1)[C@H](C(=O)[O-])C(C)C.CCCCC(=O)N(Cc1ccc(-c2ccccc2-c2nnn[nH]2)cc1)[C@H](C(=O)[O-])C(C)C.O.O.O.O.O.O.[Mg+2]` [hexahydrate of the magnesium salt of (S)-N-(1-carboxy-2-methylprop-1-yl)-N-pentanoyl-N-[2′-(1H-tetrazol-5-yl)biphenyl-4-ylmethyl]-amine], the “weight loss or water loss in %” value ([3]; 25° C.) is reported as 0%, the “weight loss or water loss in %” value ([3]; 50° C.) is reported as 1.2% and the “weight loss or water loss in %” value ([3]; 75° C.) is reported as 4.2%. For the same compound, the “weight loss or water loss in %” value ([3]; 100° C.) was 11.0%, the “weight loss or water loss in %” value ([3]; 125° C.) was 16.7% and the “weight loss or water loss in %” value ([3]; 150° C.) was 17.7%. The “weight loss or water loss in %” value ([3]; 175° C.) was 18.3%, the “weight loss or water loss in %” value ([3]; 200° C.) was 18.5% and the “weight loss or water loss in %” value ([3]; 225° C.) was 18.7%. The “weight loss or water loss in %” value ([3]; 250° C.) was 18.9%, the “weight loss or water loss in %” value ([3]; 275° C.) was 19.3% and the “water absorption or water loss (overall finding)” value ([4]; range of 20 to 80% relative humidity, measurement error about 0.1%) was “weak, reproducible water absorption or water loss”. The “water absorption or loss in %” value [4, 7] was 0.06%, the “water absorption or loss in %” value [4, 8] was 0.14% and the “water absorption or loss in %” value [4, 9] was 0.19%. The “water absorption or loss in %” value [4, 10] was 0.25%, the “water absorption or loss in %” value [4, 11] was 0.41% and the “water absorption or loss in %” value [4, 12] was 0.58%. The “water absorption or loss in %” value [4, 13] was 0.32%, the “water absorption or loss in %” value [4, 14] was 0.22% and the “water absorption or loss in %” value [4, 15] was 0.14%. The “water absorption or loss in %” value [4, 16] was 0.08%, the “water absorption or loss in %” value [4, 17] was 0.16% and the “water absorption or loss in %” value [4, 18] was −0.03%. The “water absorption or loss in %” value [4, 19] was −0.07%, the “water absorption or loss in %” value [4, 20] was −0.12% and the “water absorption or loss in %” value [4, 21] was −4.3%. For the same compound, the “water absorption or loss in %” value [4, 22] was −0.79%, the “water absorption or loss in %” value [4, 23] was −0.14% and the “water absorption or loss in %” value [4, 24] was −0.05%. The “water absorption or loss in %” value [4, 25] was 0.02%, the “water absorption or loss in %” value [4, 26] was 0.09% and the “water absorption or loss in %” value [4, 27] was 0.14%. The “water absorption or loss in %” value [4, 28] was 0.20%, the “water absorption or loss in %” value [4, 29] was 0.28% and the “water absorption or loss in %” value [4, 30] was 0.51%. For the same compound, the “water absorption or loss in %” value [4, 31] was −3.68%, the “water absorption or loss in %” value [4, 32] was −0.01% and the “water content in stability test” value [5] was “remains constant”.
